Experimental data as given in patent US11865098B1, “Methods and compositions for treating excessive sleepiness” (Axsome Malta Ltd., priority 2017, dated 2024).

System: adult patients with OSA and ES
Assay: Safety and tolerability (TEAEs, vital signs), 12-week parallel study in OSA
Assay type: in vivo, human
Conditions: for Anxiety, incidence / Any TEAE, incidence / Decreased appetite, incidence / Diarrhea, incidence / Discontinuations due to TEAEs, incidence / Dry mouth, incidence / Feeling jittery, incidence / Headache, incidence / Insomnia, incidence / Irritability, incidence / Nasopharyngitis, incidence / Nausea, incidence / Pruritus, incidence / Serious TEAEs, incidence / Sinusitis, incidence: safety population
Experimental: The study was a 12-week, double-blind, placebo-controlled, parallel design study as described in greater detail in Example 1 (Schweitzer et al., Sleep 40(Abstract Supplement):A237. Abstract 0641 (2017)). Patients were randomized (1:1:2:2:2) to APC 37.5, 75, 150, 300 mg, or placebo for 12 weeks, and were stratified by adherence or non-adherence with primary OSA therapy (adherent definition was use for ≥4 hours per night on >70% of nights). Two patient-reported measures were included as secondary efficacy outcomes to evaluate the effects of APC on functional status and work productivity and activity impairment at baseline and weeks 1, 4, 8, and 12. The Functional Outcomes of Sleep questionnaire short version (FOSQ-10) (Chasens et al., Sleep 32(7):915 (2009)) evaluated the effects of ES on functioning. The Work Productivity and Activity Impairment questionnaire for Specific Health Problems (WPAI:SHP) (Reilly et al., Pharmacoeconomics 4(5):353 (1993); Reilly, Work Productivity and Activity Impairment Questionnaire: Specific Health Problem V2.0 (WPAI: SHP). www.reillyassociates.net/WPAI_SHP) evaluated work productivity impairment among employed patients and overall activity impairment outside of work among all patients for the past 7 days. Four outcomes are available from the WPAI:SHP: Absenteeism (percent work time missed due to health); Presenteeism (percent impairment while working due to health); Percent overall work impairment (calculated from absenteeism and presenteeism); and Percent activity impairment due to health. The FOSQ-10 was evaluated as change over time compared with placebo (least squares (LS) mean); the 4 WPAI outcomes were evaluated at week 12 compared to placebo. Efficacy analyses were based on the modified intent-to-treat population (mITT) and there was no multiplicity adjustment for the FOSQ-10 or WPAI:SHP. Safety and tolerability were assessed based on treatment-emergent adverse events (TEAEs), vital signs, electrocardiogram test, physical exams, Columbia-Suicide Severity Rating Scale, and laboratory tests in the safety population.
Efficacy analyses were based on the modified intent-to-treat (mITT) population; there was no multiplicity adjustment for the SF-36 v2 or EQ-5D-5L. SF-36 v2 scores were scaled from 0 to 100 (higher scores on all scales represent better health), transformed to norm-based scores using US general-population data from SF-36 Manuals (Ware Jr et al., User's Manual for the SF-36v2™ Health Survey (2nd ed.). QualityMetric Incorporated (Lincoln, RI); 2007), and were analyzed using a mixed-effect model with repeated measures (MMRM); and baseline value of the efficacy endpoint was used to determine differences in changes from baseline. EQ-5D-5L VAS and index-score data were analyzed using an MMRM model. Safety and tolerability were assessed based on treatment-emergent adverse events (TEAEs), vital signs, electrocardiogram test, physical exams, and laboratory tests.

NC(=O)OC[C@H](N)Cc1ccccc1 [JZP-110, (R)-2-amino-3-phenylpropyl carbamate]
Serious TEAEs reported (events) (37.5 mg): bile duct obstruction (n=1) and streptococcal endocarditis (n=1)
Anxiety, incidence (37.5 mg (n = 58)): 1 (1.7) n (%)
Any TEAE, incidence (37.5 mg (n = 58)): 37 (63.8) n (%)
Decreased appetite, incidence (37.5 mg (n = 58)): 1 (1.7) n (%)
Diarrhea, incidence (37.5 mg (n = 58)): 1 (1.7) n (%)
Discontinuations due to TEAEs, incidence (37.5 mg (n = 58)): 3 (5.2) n (%)
Dry mouth, incidence (37.5 mg (n = 58)): 1 (1.7) n (%)
Feeling jittery, incidence (37.5 mg (n = 58)): 3 (5.2) n (%)
Headache, incidence (37.5 mg (n = 58)): 4 (6.9) n (%)
Insomnia, incidence (37.5 mg (n = 58)): 1 (1.7) n (%)
Irritability, incidence (37.5 mg (n = 58)): 3 (5.2) n (%)
Nasopharyngitis, incidence (37.5 mg (n = 58)): 2 (3.4) n (%)
Nausea, incidence (37.5 mg (n = 58)): 3 (5.2) n (%)
Pruritus, incidence (37.5 mg (n = 58)): 3 (5.2) n (%)
Serious TEAEs, incidence (37.5 mg (n = 58)): 2 (3.4) n (%)
Sinusitis, incidence (37.5 mg (n = 58)): 1 (1.7) n (%)
Serious TEAEs reported (events) (37.5 mg, listed as APC): bile duct obstruction (n=1), and streptococcal endocarditis (n=1)
Anxiety, incidence (75 mg (n = 62)): 2 (3.2) n (%)
Any TEAE, incidence (75 mg (n = 62)): 30 (48.4) n (%)
Decreased appetite, incidence (75 mg (n = 62)): 3 (4.8) n (%)
Diarrhea, incidence (75 mg (n = 62)): 3 (4.8) n (%)
Discontinuations due to TEAEs, incidence (75 mg (n = 62)): 2 (3.2) n (%)
Dry mouth, incidence (75 mg (n = 62)): 1 (1.6) n (%)
Feeling jittery, incidence (75 mg (n = 62)): 3 (4.8) n (%)
Headache, incidence (75 mg (n = 62)): 5 (8.1) n (%)
Insomnia, incidence (75 mg (n = 62)): 0 n (%)
Irritability, incidence (75 mg (n = 62)): 0 n (%)
Nasopharyngitis, incidence (75 mg (n = 62)): 1 (1.6) n (%)
Nausea, incidence (75 mg (n = 62)): 3 (4.8) n (%)
Pruritus, incidence (75 mg (n = 62)): 0 n (%)
Serious TEAEs, incidence (75 mg (n = 62)): 0 n (%)
Sinusitis, incidence (75 mg (n = 62)): 4 (6.5) n (%)
Serious TEAEs reported (events) (150 mg): hyperglycemia (n=1)
Anxiety, incidence (150 mg (n = 117)): 6 (5.1) n (%)
Any TEAE, incidence (150 mg (n = 117)): 83 (70.9) n (%)
Decreased appetite, incidence (150 mg (n = 117)): 9 (7.7) n (%)
Diarrhea, incidence (150 mg (n = 117)): 5 (4.3) n (%)
Discontinuations due to TEAEs, incidence (150 mg (n = 117)): 5 (4.3) n (%)
Dry mouth, incidence (150 mg (n = 117)): 5 (4.3) n (%)
Feeling jittery, incidence (150 mg (n = 117)): 1 (0.9) n (%)
Headache, incidence (150 mg (n = 117)): 10 (8.5) n (%)
Insomnia, incidence (150 mg (n = 117)): 3 (2.6) n (%)
Irritability, incidence (150 mg (n = 117)): 4 (3.4) n (%)
Nasopharyngitis, incidence (150 mg (n = 117)): 7 (6.0) n (%)
Nausea, incidence (150 mg (n = 117)): 10 (8.5) n (%)
Pruritus, incidence (150 mg (n = 117)): 1 (0.9) n (%)
Serious TEAEs, incidence (150 mg (n = 117)): 1 (0.9) n (%)
Sinusitis, incidence (150 mg (n = 117)): 0 n (%)
Anxiety, incidence (300 mg (n = 118)): 16 (13.6) n (%)
Any TEAE, incidence (300 mg (n = 118)): 91 (77.1) n (%)
Decreased appetite, incidence (300 mg (n = 118)): 14 (11.9) n (%)
Diarrhea, incidence (300 mg (n = 118)): 8 (6.8) n (%)
Discontinuations due to TEAEs, incidence (300 mg (n = 118)): 15 (12.7) n (%)
Dry mouth, incidence (300 mg (n = 118)): 9 (7.6) n (%)
Feeling jittery, incidence (300 mg (n = 118)): 7 (5.9) n (%)
Headache, incidence (300 mg (n = 118)): 17 (14.4) n (%)
Insomnia, incidence (300 mg (n = 118)): 11 (9.3) n (%)
Irritability, incidence (300 mg (n = 118)): 1 (0.8) n (%)
Nasopharyngitis, incidence (300 mg (n = 118)): 8 (6.8) n (%)
Nausea, incidence (300 mg (n = 118)): 12 (10.2) n (%)
Pruritus, incidence (300 mg (n = 118)): 0 n (%)
Serious TEAEs, incidence (300 mg (n = 118)): 0 n (%)
Sinusitis, incidence (300 mg (n = 118)): 3 (2.5) n (%)
Mean increase from baseline in diastolic blood pressure (12-week OSA study): 1-3 mmHg
Mean increase from baseline in pulse rate (12-week OSA study): 2-5 beats/minute
Mean increase from baseline in systolic blood pressure (12-week OSA study): 1-4 mmHg
Anxiety, incidence (All doses (n = 355)): 25 (7.0) n (%)
Any TEAE, incidence (All doses (n = 355)): 241 (67.9) n (%)
Decreased appetite, incidence (All doses (n = 355)): 27 (7.6) n (%)
Diarrhea, incidence (All doses (n = 355)): 17 (4.8) n (%)
Discontinuations due to TEAEs, incidence (All doses (n = 355)): 25 (7.0) n (%)
Dry mouth, incidence (All doses (n = 355)): 16 (4.5) n (%)
Feeling jittery, incidence (All doses (n = 355)): 14 (3.9) n (%)
Headache, incidence (All doses (n = 355)): 36 (10.1) n (%)
Insomnia, incidence (All doses (n = 355)): 15 (4.2) n (%)
Irritability, incidence (All doses (n = 355)): 8 (2.3) n (%)
Nasopharyngitis, incidence (All doses (n = 355)): 18 (5.1) n (%)
Nausea, incidence (All doses (n = 355)): 28 (7.9) n (%)
Pruritus, incidence (All doses (n = 355)): 4 (1.1) n (%)
Serious TEAEs, incidence (All doses (n = 355)): 3 (0.8) n (%)
Sinusitis, incidence (All doses (n = 355)): 8 (2.3) n (%)
